# Measurements published in patent US20230097226A1, “GENERATING AORTA-GONAD-MESONEPHROS-LIKE HEMATOPOIETIC CELLS FROM HUMAN PLURIPOTENT STEM CELLS UNDER A DEFINED CONDITION” (Purdue Research Foundation, priority 2020, published 2023).
# B1: colony-stimulating factor 3 (protein, UniProt P09919 31-207, looked up)
# Granulocyte …: TPLGPASSLPQSFLLKCLEQVRKIQGDGAALQEKLVSECATYKLCHPEELVLLGHSLGIPWAPLSSCPSQALQLAGCLSQLHSGLFLYQGLLQALEGISPELGPTLDTLQLDVADFATTIWQQMEELGMAPALQPTQGAMPAFASAFQRRAGGVLVASHLQSFLEVSYRVLRHLAQP
# B2: IL-16: cytokine that could be used in place of SB431542, lower efficiency (protein, UniProt Q14005 1212-1332, looked up)
# Interleukin-16: SAASASAASDVSVESTAEATVCTVTLEKMSAGLGFSLEGGKGSLHGDKPLTINRIFKGAASEQSETVQPGDEILQLGGTAMQGLTRFEAWNIIKALPDGPVTIVIRRKSLQSKETTAAGDS
# B3: FMS-like tyrosine kinase 3 ligand (protein, UniProt P49771 27-235, looked up)
# Fms-related tyrosine kinase 3 …: TQDCSFQHSPISSDFAVKIRELSDYLLQDYPVTVASNLQDEELCGGLWRLVLAQRWMERLKTVAGSKMQGLLERVNTEIHFVTKCAFQPPPSCLRFVQTNISRLLQETSEQLVALKPWITRQNFSRCLELQCQPDSSTLPPPWSPRPLEATAPTAPQPPLLLLLLLPVGLLLLAAAWCLHWQRTRRRTPRPGEQVPPVPSPQDLLLVEH
# notes: Recombinant Human Flt3-Ligand, Peprotech #300-19
# Experiments:
# Format in all cases: cell-based, human
# [1] = system: hPSC-derived hemogenic endothelium; assay: Hematopoietic specification of hPSC-derived hemogenic endothelium, flow cytometry for CD45; conditions: for generation of CD45+ hematopoietic cells: screening of chemicals and cytokines, feeder-free conditions, 19-9-11 iPSC-derived HE; for yield of resulting stem cells: day 12, differentiation factor applied at hematopoietic specification stage; for yield and purity of CD45+ hematopoietic cells on retrieval from the differentiation medium: day 15 cultures, SCF and FLT3L withdrawn; for efficiency of generating AGM-like hematopoietic stem cells when used in place of SB431542: Day 4-6 of differentiation
# Protocol: While OP9-DLL4 stromal cells have been used to efficiently induce hematopoietic and immune cells from our small-molecule induced HE [32], the undefined nature of feeder cells may lead to inaccurate investigation of signaling pathways during hematopoiesis. Thus, to develop a chemically-defined hematopoietic specification platform, screening of known chemicals and cytokines was performed on our hPSC-derived AGM-like HE under feeder-free conditions (FIG. 2A). […] Wnt-059 and SB-induced hematopoiesis were also applicable to H9 and 6-9-9 hPSCs (FIG. 2E).
# 19-9-11, 19-9-7, 6-9-9, H1, H9 and H13 were obtained from WiCell and maintained on Matrigel- or iMatrix 511-coated plates in mTeSR plus or mTeSR1 medium according to a previously published method. RUES2 were kindly provided by Dr. Ali H. Brivanlou at the Rockefeller University. The Kolf2 and CT2 data were acquired in Dr. Yang Yang's lab and Dr. Ourania Andrisani's lab at Purdue. H9 7TGFβ Wnt reporter and 19-9-11 ischcat-1 as well as ischcat-2 lines were kindly provided by Dr. Sean Palecek at University of Wisconsin-Madison. To make hematopoietic cells, hPSCs were dissociated with 1 mM EDTA and seeded onto iMatrix 511 or Matrigel-coated 6-, 12- or 24-well plate at a cell density between 10,000 and 80,000 cell/cm^2 in mTeSR plus or mTeSR1 medium with 5 μM Y27632 for 24 hours (day-1). At day 0, cells were treated with 6 μM CHIR99021 (CHIR) in DMEM medium supplemented with 100 ug/ml ascorbic acid (DMEM/Vc), followed by a medium change with LasR basal medium at day 1, day 2 and day 3. For female hPSC lines, 50 ng/mL VEGF was added to the medium from day 2 to day 4. At day 4, medium was replaced by Stemline II medium (Sigma) supplemented 10 μM SB431542. After 2 days, SB431542-containing medium was aspirated and cells were maintained in Stemline II medium with or without 50 ng/mL SCF and FLT3L. At day 9 and every 2 to 3 days afterwards, aspirate half medium and add fresh Stemline II medium with or without SCF/FLT3L until analysis. Other media used to induce hematopoietic cells were illustrated in FIG. 8B.
# Floating hematopoietic cells were gently pipetted and filtered through a 70 or 100 μm strainer sitting on a 50 ml tube. The cells were then pelleted by centrifugation and washed once in PBS−/−solution with 1% bovine serum albumin (BSA). The cells were stained with appropriate conjugated antibodies (Table 1) for 25 mins at room temperature in dark, and analyzed in Accuri C6 plus flow cytometer (Beckton Dickinson) after washing once with BSA-containing PBS−/−solution. FlowJo software was used to process collected flow data.
# [2] = system: hPSCs; assay: Hemogenic endothelium differentiation of hPSCs, flow cytometry and immunostaining for CD34/SOX17; conditions: early CHIR treatment; day 5 cultures
# Excerpt: Producing hemogenic endothelium (HE) from hPSCs, marked by the expression of typical endothelial marker VE-cadherin, CD31, and CD34, is a vital step towards hematopoietic cell generation. We've previously developed a robust protocol to generate homogenous CD34+CD31+HE from hPSCs via small-molecule activation of Wnt signaling (FIG. 1A-B). Since simultaneous modulation of Wnt and Activin signaling yields aorta-like SOX17+ vessels in AGM that give rise to hematopoietic cells, we speculated that our small molecule-induced CD34+CD31+ cells are also SOX17+, which was confirmed by flow cytometry and immunostaining analysis of SOX17 expression (FIG. 1C-D). […] Importantly, the resulting CD34+SOX17+AGM-like HE didn't express CD235a, markers of primitive hematopoiesis.
# 19-9-11, 19-9-7, 6-9-9, H1, H9 and H13 were obtained from WiCell and maintained on Matrigel- or iMatrix 511-coated plates in mTeSR plus or mTeSR1 medium according to a previously published method. RUES2 were kindly provided by Dr. Ali H. Brivanlou at the Rockefeller University. […]
# Floating hematopoietic cells were gently pipetted and filtered through a 70 or 100 μm strainer sitting on a 50 ml tube. […] The cells were stained with appropriate conjugated antibodies (Table 1) for 25 mins at room temperature in dark, and analyzed in Accuri C6 plus flow cytometer (Beckton Dickinson) after washing once with BSA-containing PBS−/−solution. […]
# [3] = system: Wnt signaling; assay: RT-PCR of day 6 HE samples (WNT3A, AXIN2) and 7TGP Wnt reporter line; conditions: for transcriptional activity of endogenous Wnt signaling: H9 7TGP Wnt reporter line, day 6, eGFP flow cytometry; for expression of WNT3A and AXIN2: RT-PCR, day 6 HE samples
# Protocol: Cells cultured on 24-well plate were collected and lysed in 500 μL TRIzol™ reagent (Invitrogen). Total RNA were then prepared with the Direct-zol RNA miniprep kit (Zymo) with in-column DNase treatment following the manufacture's instruction. cDNA was reverse transcribed from 1 μg RNA with ProtoScript First Strand cDNA Synthesis Kit (NEB) and used for RT-PCR with GoTaq Green Master Mix (Promega).
molecule,measurement,setting,value
Cc1c[nH]c(-c2cnc(NCCNc3ccc(C#N)cn3)nc2-c2ccc(Cl)cc2Cl)n1 [CHIR99021],effect on hematopoiesis induced by SB,[1]; activation of Wnt signaling together with SB,blocked
same,CD34+SOX17+ population obtained,[2],homogenous CD34+SOX17+ population
Cc1cc(-c2ccc(CC(=O)Nc3ccc(-c4cccnc4)cc3)cc2)ccn1 [Wnt-059],generation of CD45+ hematopoietic cells,[1],significantly induced
same,transcriptional activity of endogenous Wnt signaling,[3],low transcriptional activity
same,expression of WNT3A and AXIN2,[3],low expression
NC(=O)c1ccc(-c2nc(-c3ccc4c(c3)OCO4)c(-c3ccccn3)[nH]2)cc1 [SB431542],CD45+ hematopoietic cells,"[1]; SB treatment day 4 to 6, read on day 12, 19-9-11 iPSCs",more than 40%
same,yield of resulting stem cells,[1],40.9%
same,generation of CD45+ hematopoietic cells,[1],significantly enhanced
same,transcriptional activity of endogenous Wnt signaling,[3],low transcriptional activity
same,expression of WNT3A and AXIN2,[3],low expression
thrombopoietin [TPO],promotion of hematopoietic cell production,[1],work well
same,yield of resulting stem cells,[1],30.4%
heparin,promotion of hematopoietic cell production,[1],work well
same,yield of resulting stem cells,[1],20.6%
stem cell factor [SCF],yield and purity of CD45+ hematopoietic cells on retrieval from the differentiation medium,[1],reduced both the yield and purity
B1,efficiency of generating AGM-like hematopoietic stem cells when used in place of SB431542,[1],lower efficiency
B2,efficiency of generating AGM-like hematopoietic stem cells when used in place of SB431542,[1],lower efficiency
B3,yield and purity of CD45+ hematopoietic cells on retrieval from the differentiation medium,[1],reduced both the yield and purity
